Data on four compounds can be found in ChEMBL document CHEMBL3137667, “[Drug-induced liver injury; fourteenth updated edition of the bibliographic database of liver injuries and related drugs]” (Gastroenterol Clin Biol, 2004).

The conditions of series [1]: human.
The conditions of series [2]: human. The source holds these as a separate data set.
A short description of series [3]: Highest frequency of moderate liver toxicity observed during clinical trials, expressed as a percentage. [column '% BIOL' in source]. To be noted: human.
The conditions of series [4]: human. The source holds these as a separate data set.
The nature of series [5]: Times to onset, minimal and maximal, observed in the indexed observations. [column 'DELAI' in source]. The following applies: human.
Series [6] in a line: Proposed mechanism(s) of liver damage. [column 'MEC' in source]. The following applies: human.
For series [7] the following is noted: human. This is another data set of the same source.
The conditions of series [8]: human. This is another data set of the same source.
For series [9] the following is noted: human. This is another data set of the same source.
The conditions of series [10]: human. This is another data set of the same source.
For series [11] the following is noted: human. This is another data set of the same source.
For series [12] the following is noted: human, serum.
For series [13] the following is noted: human, serum. This is another data set of the same source.
A short description of series [14]: Highest frequency of acute liver toxicity observed during clinical trials, expressed as a percentage. [column '% AIGUE' in source]. To be noted: human.
The conditions of series [15]: human. The source holds these as a separate data set.
The conditions of series [16]: human, serum, 4383 h.
For series [17] the following is noted: human. This is another data set of the same source.
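Wherever Hepatotoxicity (association with vascular disease) is given: count of indexed literature references reporting vascular liver injury in humans, e.g. peliosis hepatitis, hepatic veno-occlusive disease or Budd-Chiari syndrome.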
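Wherever Hepatotoxicity (benign tumour) is given: value is a count of indexed literature references citing a benign tumour confirmed by histopathology.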
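Wherever Hepatotoxicity (choleostasis) is given: human cholestatic liver injury, shown by histopathology or by peak ALT or AST elevation over alkaline phosphatase ratio below 2, value counts indexed literature reports.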
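Wherever Hepatotoxicity (chronic liver disease) is given: chronic liver injury confirmed by histopathology or persistently raised serum aminotransferase activity beyond 6 months, value given as the count of indexed literature references.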
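Wherever Hepatotoxicity (cirrhosis) is given: value is a count of indexed literature references reporting cirrhosis confirmed by histopathology.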
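Wherever Hepatotoxicity (cytolytic) is given: human cytolytic liver injury, shown by histopathology or by a ratio above 5 of peak ALT or AST elevation to alkaline phosphatase elevation, value counts indexed references.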
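Wherever Hepatotoxicity (granulomatous hepatitis) is given: value is a count of indexed literature references reporting granulomatous liver disease confirmed by histopathology.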
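Wherever Hepatotoxicity (malignant tumour) is given: malignant tumour confirmed by histopathology, value gives the count of indexed literature references reporting it.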
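Wherever Hepatotoxicity (severe hepatitis) is given: human clinical data: severe hepatitis, meaning potentially life-threatening liver failure or clinically observed cases, the value counts how many indexed literature references report it.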
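Wherever Hepatotoxicity (steatosis) is given: steatosis confirmed by histopathology, value is the count of indexed references.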

`Nc1ccc(/N=N/c2ccccc2)c(N)n1` [PHENAZOPYRIDINE]: the “Hepatotoxicity (granulomatous hepatitis)” value in series [1] was found to be 0. In addition, the “Hepatotoxicity (cytolytic)” value in series [2] was 0. The figures for the “Hepatotoxicity (moderate)” value in series [3] and in [12] were 0% and 4, respectively. Also, the “Hepatotoxicity (malignant tumour)” value in series [4] was determined as 0. In addition, the “Hepatotoxicity (time to onset)” value in series [5] was 1 week. Also, the “Hepatotoxicity (mechanism)” value in series [6] is “Allergic, Toxic Metabolite”. Further, the “Hepatotoxicity (severe hepatitis)” value in series [7] is given as 0. The “Hepatotoxicity (benign tumour)” value in [8] amounted to 0. For the same compound, in series [9], the “Hepatotoxicity (animal toxicity known)” value is listed as “yes”. Also, in series [10], the “Hepatotoxicity (steatosis)” value came to 0. The “Hepatotoxicity (association with vascular disease)” value in series [11] was 0. For the same compound, the “Hepatotoxicity (acute)” value in [13] is 2; in series [14], 0%. For the same compound, the “Hepatotoxicity (choleostasis)” value in series [15] was found to be 2. Also, the “Hepatotoxicity (chronic liver disease)” value in series [16] is 0. For the same compound, in [17], the “Hepatotoxicity (cirrhosis)” value is 0.

With `Cc1c(N(C)C)c(=O)n(-c2ccccc2)n1C` [AMINOPYRINE], the “Hepatotoxicity (granulomatous hepatitis)” value in series [1] was determined as 0. In series [2], the “Hepatotoxicity (cytolytic)” value was 3. The “Hepatotoxicity (moderate)” value in series [3] (Liver) came to 0%; in series [12], 2. Further, the “Hepatotoxicity (malignant tumour)” value in [4] is listed as 0. Besides, the “Hepatotoxicity (time to onset)” value in series [5] came to 3 months. Moreover, the “Hepatotoxicity (mechanism)” value in series [6] is given as “Dose-dependant”. Besides, the “Hepatotoxicity (severe hepatitis)” value in series [7] (Liver) was 2. Besides, the “Hepatotoxicity (benign tumour)” value in series [8] amounted to 0. Also, in series [9], the “Hepatotoxicity (animal toxicity known)” value was “yes”. Further, in series [10], the “Hepatotoxicity (steatosis)” value is 1. For the same compound, the “Hepatotoxicity (association with vascular disease)” value in series [11] is listed as 0. Besides, the “Hepatotoxicity (acute)” value in series [13] is 6; in series [14] (Liver) it was 0%. In addition, the “Hepatotoxicity (choleostasis)” value in series [15] is listed as 1. In addition, in [16], the “Hepatotoxicity (chronic liver disease)” value was found to be 0. For the same compound, the “Hepatotoxicity (cirrhosis)” value in series [17] is 0.

On to ASPARAGINASE, for which the “Hepatotoxicity (granulomatous hepatitis)” value in [1] was 0. Further, the “Hepatotoxicity (cytolytic)” value in series [2] was 1. Moreover, the “Hepatotoxicity (moderate)” value in series [3] is on record as 63%; in [12], 27. The “Hepatotoxicity (malignant tumour)” value in series [4] is reported as 0. In addition, in [6], the “Hepatotoxicity (mechanism)” value is given as “Dose-dependant”. Moreover, the “Hepatotoxicity (severe hepatitis)” value in series [7] is 2. Moreover, the “Hepatotoxicity (benign tumour)” value in [8] came to 0. Moreover, the “Hepatotoxicity (animal toxicity known)” value in [9] was “yes”. The “Hepatotoxicity (steatosis)” value in series [10] is given as 9. Besides, in series [11], the “Hepatotoxicity (association with vascular disease)” value is 0. The “Hepatotoxicity (acute)” value in [13] stood at 2; in [14], 2.9%. The “Hepatotoxicity (choleostasis)” value in series [15] came out at 0. In addition, in [16], the “Hepatotoxicity (chronic liver disease)” value is 0. Moreover, the “Hepatotoxicity (cirrhosis)” value in [17] is reported as 0.

For `C[C@H](CCC(=O)O)[C@H]1CC[C@H]2[C@@H]3[C@@H](O)C[C@@H]4C[C@H](O)CC[C@]4(C)[C@H]3CC[C@]12C` [URSODIOL], in series [1], the “Hepatotoxicity (granulomatous hepatitis)” value was 0. For the same compound, the “Hepatotoxicity (cytolytic)” value in [2] is listed as 0. For the same compound, the “Hepatotoxicity (moderate)” value in [3] was found to be 4.2%; in series [12], 8. For the same compound, the “Hepatotoxicity (malignant tumour)” value in series [4] came out at 0. In addition, the “Hepatotoxicity (time to onset)” value in series [5] came to 3 weeks - 14 weeks. Besides, the “Hepatotoxicity (severe hepatitis)” value in series [7] is on record as 0. The “Hepatotoxicity (benign tumour)” value in [8] is given as 0. In addition, the “Hepatotoxicity (animal toxicity known)” value in series [9] is reported as “yes”. Besides, the “Hepatotoxicity (steatosis)” value in series [10] was 0. In addition, the “Hepatotoxicity (association with vascular disease)” value in [11] amounted to 0. For the same compound, the “Hepatotoxicity (acute)” value is 1 in [13] and 0% in series [14]. For the same compound, in [15], the “Hepatotoxicity (choleostasis)” value is on record as 0. Also, in [16], the “Hepatotoxicity (chronic liver disease)” value amounted to 0. Also, the “Hepatotoxicity (cirrhosis)” value in series [17] amounted to 0.
